US20200376146A1, “NANOBIOLOGIC COMPOSITIONS FOR INHIBITING TRAINED IMMUNITY” (ICAHN SCHOOL OF MEDICINE, priority 2017, published 2020)

Experiments:
[1] = Hydrolysis of (pro-)drugs in nanobiologics; format: physicochemical; conditions: 4° C. in PBS
Description: (Pro-)drug recovery and hydrolysis were determined using the following procedure: an aliquot (200 μL) of the particle solution was dried under vacuum, acetonitrile (600 μL) was added and the suspension was sonicated for 20 minutes. The suspension was centrifuged to precipitate any solids and the remaining solution was analyzed using HPLC; except for the malonate derivatives which were analyzed using SFC-MS, and Dimethylmalonate which was analyzed by GC-MS.

heart allograft = experiment: Cardiac allograft survival (BALB/c hearts into C57BL/6 recipients); format: in vivo, mice; conditions: oral, 5 mg/kg every day for 15 days
[2] = Toxicity in transplant recipients (BUN, serum creatinine, histopathology); format: in vivo, mice; conditions: regimens giving 100% allograft survival for 30 days

hydrolysis of the (pro-)drug in the nanobiologic over time [1]	Structure (SMILES)	allograft survival for 30 days (heart allograft)	blood urea nitrogen (BUN) and serum creatinine [2]
hydrolysis was observed	CCCCCCCCCCCCCCCCCC(=O)O[C@@H]1CC[C@@H](C[C@@H](C)[C@@H]2CC(=O)[C@H](C)/C=C(\C)[C@@H](O)[C@@H](OC)C(=O)[C@H](C)C[C@H](C)/C=C/C=C/C=C(\C)[C@@H](OC)C[C@@H]3CC[C@@H](C)[C@@](O)(O3)C(=O)C(=O)N3CCCC[C@H]3C(=O)O2)C[C@H]1OC [Cis-Rapamycin, Rapamycin-C18]		
	CO[C@H]1C[C@@H]2CC[C@@H](C)[C@@](O)(O2)C(=O)C(=O)N2CCCC[C@H]2C(=O)O[C@H]([C@H](C)C[C@@H]2CC[C@@H](O)[C@H](OC)C2)CC(=O)[C@H](C)/C=C(\C)[C@@H](O)[C@@H](OC)C(=O)[C@H](C)C[C@H](C)/C=C/C=C/C=C/1C [Rapamycin, rapamycin]	100%	kidney toxicity parameters show statistical differences between oral rapamycin and mTORi-HDL
